Entries after “also recorded” stand apart in the source; their conditions may differ.
Assays:
MMP-9 = MMP-9 enzyme (gelatinase) / zymography assay in PC3-AR9 cells; assay type: cell-based, human; conditions: for gelatinase activity of MMP-9: PC3-AR9 cells
PC3-AR9 cells = test: Boyden chamber Matrigel invasion assay of PC3-AR9 cells; assay type: cell-based, human; conditions: Matrigel coated Boyden chambers
Experimental: The invasion assays used Boyden chambers (Becton Dickinson) with […] inserts and 8 μm pores. Matrigel Matrix ([…] surface area) was placed in medium (1:5 dilution) on the inner layer of the invasion chamber and incubated at 37° C. for 30 min before adding the cells.

## C[C@]12CCC(=O)C[C@@H]1CC[C@@H]1[C@@H]2CC[C@]2(C)[C@@H](O)CC[C@@H]12 [DHT, dihydrotestosterone]
MMP-9; 1 nM DHT
  gelatinase activity of MMP-9: suppress
PC3-AR9 cells; in the presence of DHT, compared to PC3-v
  invasion of PC3-AR9: decreased

## CC(C)(O)C(=O)Nc1ccc([N+](=O)[O-])c(C(F)(F)F)c1 [HF]
MMP-9; 1 μM HF added to 1 nM DHT
  gelatinase activity of MMP-9: restore
PC3-AR9 cells; addition of HF to DHT
  invasion of PC3-AR9: increased

## CCCCCCCCCCCCCC(=O)O[C@@H]1[C@@H](C)[C@@]2(O)[C@@H](C=C(CO)C[C@]3(O)C(=O)C(C)=C[C@@H]23)[C@@H]2C(C)(C)[C@]12OC(C)=O [TPA]
MMP-9; 10 nM TPA
  activity of MMP-9 (zymography): increased; also recorded: enhanced
